Reference: patent US5241087A (priority 1992, dated 1993)

System: oxynitrilase enzyme from sorghum
Experiment: not given
Details: 6 Phytochemistry 473 (1967); cited from earlier work

For `N#CC(O)c1ccc(O)cc1` (stereo not drawn) [p-hydroxybenzaldehyde cyanohydrin], the “specificity of sorghum oxynitrilase for dehydrocyanation of substrate” value is given as “appears to be specific”.

System: (R)-oxynitrilase
Experiment: Relative rate of dehydrocyanation of cyanohydrins by soluble (R)-oxynitrilase (initial rate studies, absorbance)
Type: biochemical
Details: (R)-oxynitrilase with 0.21 mM solution of cyanohydrin; relative to benzaldehyde cyanohydrin = 1.0
Procedure: The following standardized assay was utilized to measure the activity of oxynitrilase set forth in the Examples which follow. A solution of enzyme was prepared in 0.1M (pH 5.5) citrate buffer. A 3-ml sample of enzyme solution was combined with 30 microliters of 0.21M benzaldehyde cyanohydrin and the rate of increase in absorbance at 250 nm recorded. Then, the same procedure was followed with a 3-ml sample of 0.1M (pH 5.5) citrate buffer to obtain the background, non-enzymatic, reaction. The activity in units/ml was calculated by subtracting the slope of the non-enzymatic reaction from the slope of the enzymatic reaction and converting the absorbance change with time to concentration change with time using a molar extinction coefficient of 13,200 M^-1 cm^-1.
Relative rates of dehydrocyanation of different cyanohydrins subjected to the action of the soluble catalyst (R)-oxynitrilase were determined from initial rate studies. A solution of (R)-oxynitrilase was combined with a 0.21 mM solution of cyanohydrin and the rate of increase of absorbance at the wavelength corresponding to the absorption maxima was monitored as described above in connection with the measurement of catalyst activity. The measured activity was calculated using the appropriate extinction coefficient for the corresponding aldehyde.

Compared with `Cc1ccc(C(O)C#N)o1` (stereo not drawn) [5-Methylfurfural cyanohydrin], `N#CC(O)c1ccco1` (stereo not drawn) [Furfural cyanohydrin] is lower in “Relative Rate (dehydrocyanation)” value: 2.8 for the first, 2.5 for the second.

Going from `Cc1ccc(C(O)C#N)cc1` (stereo not drawn) [p-Tolualdehyde cyanohydrin] to `COc1ccc(C(O)C#N)cc1` (stereo not drawn) [p-Anisaldehyde cyanohydrin], the “Relative Rate (dehydrocyanation)” value falls from 0.45 to 0.17.

Going from `COc1cccc(C(O)C#N)c1` (stereo not drawn) [m-Anisaldehyde cyanohydrin] to `N#CC(O)c1ccccc1` (stereo not drawn) [Benzaldehyde cyanohydrin], the “Relative Rate (dehydrocyanation)” value rises from 0.19 to 1.0.

First: N#CC(O)C=Cc1ccccc1 (stereo not drawn) [Cinnamaldehyde cyanohydrin]
Second: CC=CC(O)C#N (stereo not drawn) [Crotonaldehyde cyanohydrin]
The “Relative Rate (dehydrocyanation)” value of the first is lower: 0.05 for the first, 0.90 for the second.

Going from `N#CC(O)c1ccc2c(c1)OCO2` (stereo not drawn) [Piperonal cyanohydrin] to `CCc1ccc(C(O)C#N)cc1` (stereo not drawn) [p-Ethylbenzaldehyde cyanohydrin], the “Relative Rate (dehydrocyanation)” value falls from 2.1 to 0.13.

System: not listed separately
Experiment: Permeability through supported-gas membrane (microporous polypropylene hollow fibers, system of FIG. 1)
Details: supported-gas membrane system of FIG. 1

With `O=Cc1ccccc1` [benzaldehyde] the “average permeability relative to the permeability of benzaldehyde cyanohydrin” value was “roughly 700 times”.
